# Experiments:
# healthy human volunteers [1] = experiment: Phase Ia Study in Healthy Volunteers; assay type: in vivo; conditions: males; for Change from Baseline for Lean Muscle, Comparison to Placebo Difference / Change from Baseline for Lean Muscle, LS Mean: Day 28
# healthy human volunteers [2] = experiment: Phase Ib Study of Healthy Volunteers; assay type: in vivo; conditions: males
# healthy volunteers = experiment: Treatment of healthy volunteers (12 weeks); assay type: in vivo, human; conditions: after 12 weeks in healthy volunteers
# [3] = Allometric prediction of human clearance, bioavailability and dose
compound,measurement,setting,value
"CC(C)OC(=O)N[C@H]1Cc2c(n(Cc3ccccn3)c3ccc(C#N)cc23)C1 (single isomer, unassigned) [Example 1]","Change from Baseline for Lean Muscle, Comparison to Placebo Difference",healthy human volunteers [1]; 15 mg,3202.54 g
same,"Change from Baseline for Lean Muscle, LS Mean",healthy human volunteers [1]; 15 mg,2329.08 g
same,"Change from Baseline for Prostate Specific Antigen, Comparison to Placebo Difference","healthy human volunteers [1]; 15 mg, day 14",-0.16 µg/L
same,"Change from Baseline for Prostate Specific Antigen, LS Mean","healthy human volunteers [1]; 15 mg, day 14",-0.11 µg/L
same,"Change from Baseline for Prostate Specific Antigen, Comparison to Placebo Difference","healthy human volunteers [1]; 15 mg, day 28",-0.31 µg/L
same,"Change from Baseline for Prostate Specific Antigen, LS Mean","healthy human volunteers [1]; 15 mg, day 28",-0.27 µg/L
same,"Change from Baseline for Prostate Specific Antigen, Comparison to Placebo Difference","healthy human volunteers [1]; 15 mg, day 35",0.22 µg/L
same,"Change from Baseline for Prostate Specific Antigen, LS Mean","healthy human volunteers [1]; 15 mg, day 35",0.25 µg/L
same,"Change from Baseline for Lean Muscle, Comparison to Placebo Difference",healthy human volunteers [1]; 25 mg,1829.63 g
same,"Change from Baseline for Lean Muscle, LS Mean",healthy human volunteers [1]; 25 mg,956.18 g
same,"Change from Baseline for Prostate Specific Antigen, Comparison to Placebo Difference","healthy human volunteers [1]; 25 mg, day 14",-0.19 µg/L
same,"Change from Baseline for Prostate Specific Antigen, LS Mean","healthy human volunteers [1]; 25 mg, day 14",-0.15 µg/L
same,"Change from Baseline for Prostate Specific Antigen, Comparison to Placebo Difference","healthy human volunteers [1]; 25 mg, day 28",-0.27 µg/L
same,"Change from Baseline for Prostate Specific Antigen, LS Mean","healthy human volunteers [1]; 25 mg, day 28",-0.22 µg/L
same,"Change from Baseline for Prostate Specific Antigen, Comparison to Placebo Difference","healthy human volunteers [1]; 25 mg, day 35",-0.17 µg/L
same,"Change from Baseline for Prostate Specific Antigen, LS Mean","healthy human volunteers [1]; 25 mg, day 35",-0.14 µg/L
same,"Change from Baseline for Lean Muscle, Comparison to Placebo Difference",healthy human volunteers [1]; 75 mg,-683.76 g
same,"Change from Baseline for Lean Muscle, LS Mean",healthy human volunteers [1]; 75 mg,-1557.21 g
same,"Change from Baseline for Prostate Specific Antigen, Comparison to Placebo Difference","healthy human volunteers [1]; 75 mg, day 14",-0.17 µg/L
same,"Change from Baseline for Prostate Specific Antigen, LS Mean","healthy human volunteers [1]; 75 mg, day 14",-0.13 µg/L
same,"Change from Baseline for Prostate Specific Antigen, Comparison to Placebo Difference","healthy human volunteers [1]; 75 mg, day 28",0.03 µg/L
same,"Change from Baseline for Prostate Specific Antigen, LS Mean","healthy human volunteers [1]; 75 mg, day 28",0.07 µg/L
same,"Change from Baseline for Prostate Specific Antigen, Comparison to Placebo Difference","healthy human volunteers [1]; 75 mg, day 35",0.00 µg/L
same,"Change from Baseline for Prostate Specific Antigen, LS Mean","healthy human volunteers [1]; 75 mg, day 35",0.03 µg/L
same,"Change from Baseline for P1NP, Comparison to Placebo Difference","healthy human volunteers [2]; 1 mg, day 14",-2.40 µg/L
same,"Change from Baseline for Procollagen Type I N Propeptide (P1NP), LS Mean","healthy human volunteers [2]; 1 mg, day 14",-3.55 µg/L
same,"Change from Baseline for P1NP, Comparison to Placebo Difference","healthy human volunteers [2]; 1 mg, day 28",1.49 µg/L
same,"Change from Baseline for Procollagen Type I N Propeptide (P1NP), LS Mean","healthy human volunteers [2]; 1 mg, day 28",0.16 µg/L
same,"Change from Baseline for P1NP, Comparison to Placebo Difference","healthy human volunteers [2]; 1 mg, day 35",-2.26 µg/L
same,"Change from Baseline for Procollagen Type I N Propeptide (P1NP), LS Mean","healthy human volunteers [2]; 1 mg, day 35",-5.70 µg/L
same,"Change from Baseline for P1NP, Comparison to Placebo Difference","healthy human volunteers [2]; 5 mg, day 14",3.27 µg/L
same,"Change from Baseline for Procollagen Type I N Propeptide (P1NP), LS Mean","healthy human volunteers [2]; 5 mg, day 14",2.11 µg/L
same,"Change from Baseline for P1NP, Comparison to Placebo Difference","healthy human volunteers [2]; 5 mg, day 28",4.20 µg/L
same,"Change from Baseline for Procollagen Type I N Propeptide (P1NP), LS Mean","healthy human volunteers [2]; 5 mg, day 28",2.88 µg/L
same,"Change from Baseline for P1NP, Comparison to Placebo Difference","healthy human volunteers [2]; 5 mg, day 35",1.13 µg/L
same,"Change from Baseline for Procollagen Type I N Propeptide (P1NP), LS Mean","healthy human volunteers [2]; 5 mg, day 35",-2.31 µg/L
same,"Change from Baseline for P1NP, Comparison to Placebo Difference","healthy human volunteers [2]; 15 mg, day 14",2.49 µg/L
same,"Change from Baseline for Procollagen Type I N Propeptide (P1NP), LS Mean","healthy human volunteers [2]; 15 mg, day 14",1.34 µg/L
same,"Change from Baseline for P1NP, Comparison to Placebo Difference","healthy human volunteers [2]; 15 mg, day 28",3.41 µg/L
same,"Change from Baseline for Procollagen Type I N Propeptide (P1NP), LS Mean","healthy human volunteers [2]; 15 mg, day 28",2.09 µg/L
same,"Change from Baseline for P1NP, Comparison to Placebo Difference","healthy human volunteers [2]; 15 mg, day 35",0.03 µg/L
same,"Change from Baseline for Procollagen Type I N Propeptide (P1NP), LS Mean","healthy human volunteers [2]; 15 mg, day 35",-3.41 µg/L
same,"Change from Baseline for P1NP, Comparison to Placebo Difference","healthy human volunteers [2]; 25 mg, day 14",-0.92 µg/L
same,"Change from Baseline for Procollagen Type I N Propeptide (P1NP), LS Mean","healthy human volunteers [2]; 25 mg, day 14",-2.07 µg/L
same,"Change from Baseline for P1NP, Comparison to Placebo Difference","healthy human volunteers [2]; 25 mg, day 28",2.75 µg/L
same,"Change from Baseline for Procollagen Type I N Propeptide (P1NP), LS Mean","healthy human volunteers [2]; 25 mg, day 28",1.43 µg/L
same,"Change from Baseline for P1NP, Comparison to Placebo Difference","healthy human volunteers [2]; 25 mg, day 35",0.47 µg/L
same,"Change from Baseline for Procollagen Type I N Propeptide (P1NP), LS Mean","healthy human volunteers [2]; 25 mg, day 35",-2.97 µg/L
same,"Change from Baseline for P1NP, Comparison to Placebo Difference","healthy human volunteers [2]; 75 mg, day 14",-3.81 µg/L
same,"Change from Baseline for Procollagen Type I N Propeptide (P1NP), LS Mean","healthy human volunteers [2]; 75 mg, day 14",-4.96 µg/L
same,"Change from Baseline for P1NP, Comparison to Placebo Difference","healthy human volunteers [2]; 75 mg, day 28",2.81 µg/L
same,"Change from Baseline for Procollagen Type I N Propeptide (P1NP), LS Mean","healthy human volunteers [2]; 75 mg, day 28",1.48 µg/L
same,"Change from Baseline for P1NP, Comparison to Placebo Difference","healthy human volunteers [2]; 75 mg, day 35",2.35 µg/L
same,"Change from Baseline for Procollagen Type I N Propeptide (P1NP), LS Mean","healthy human volunteers [2]; 75 mg, day 35",-1.09 µg/L
same,hematocrit,healthy volunteers,no significant changes
same,prostate specific antigen (PSA),healthy volunteers,no significant changes
same,predicted human bioavailability,[3],49%
same,allometrically predicted human clearance,[3]; 90% CI 24 to 46,33 Uh

# — patent US10799478B2, “Treatment of androgen deprivation therapy associated symptoms” (priority 2014, dated 2020)
